# Experimental data from patent publication US7534558B2, “In vitro diagnostic test for enterovirus infections” (Universite de Lille 2 Droit Et Sante, priority 2003, dated 2009).
# Entries after “also recorded” stand apart in the source; their conditions may differ.
# Key:
# [1] = system: anti-VP4 antibodies in plasmas or serums; assay: ELISA of plasmas/serums on wells coated with VP4 protein or VP4 peptides; format: binding, human; conditions: for OD in ELISA assay compared with the VP4 protein: 40 serums from patients and 40 controls; for Mean value of OD ratio (OD / OD of negative control), ELISA: diluted 1/50, antigen coated at 5 μg/ml, 490 nm
# Procedure: 40 plasmas from non diabetic patients and 40 plasmas or serums from diabetic patients were assayed.
# The VP4 protein or the 5 VP4 peptides, diluted at 5 μg/ml in PBS buffer pH=7.4, are coated in the wells of a microplate of 96 wells (FluoroMunc, MaxiSorp surface, NUNC, Danemark) at the rate of 100 μl/well. The plates are incubated for 1 hour at 37° C. under humid atmosphere, then left for 24 h at room temperature. After 3 washings with PBS buffer, the wells are saturated with 300 μl of saturation buffer for 1 hour at 37° C. under humid atmosphere, before washing 3 times with the washing buffer. Then 250 μl of post-coating buffer are added to each well and the plates are incubated for 24 h at room temperature, then stored at 4° C. until use.
# The wells coated with the VP4 protein or the different peptides VP4 are washed 3 times with washing buffer in order to remove the post-coating solution. Then 100 μl of the plasmas or serums diluted to 1/50th in dilution buffer are added to different wells and the plates are incubated for 1 hour at 37° C. under humid atmosphere. Simultaneously, a negative control well containing 100 μl of dilution buffer is carried out. Then the wells are washed 3 times with the washing solution and 100 μl of secondary antibody solution are added to each well. After incubation for 1 h at 37° C. under humid atmosphere, the wells are washed 5 times with the washing solution and 100 μl of substrate solution are added to each well. The plates are incubated for 30 minutes at room temperature and in the dark. The coloured reaction is stopped by addition of 25 μl of H2SO4 2M (1M) per well and the plates are read in a plate reader at a wavelength of 490 nm.
# ODs obtained for each serum with the VP4 protein and the different peptides VP4 were divided by the OD obtained with the negative control. The following Tables show the mean +/− standard deviation of the rates of OD obtained with the two series of assayed serums (Patient=diabetic patients, Control=not diabetic). (see FIGS. 8 à 10)
# [2] = system: CVB4E2/plasma induced IFNα production by PBMCs; assay: CVB4E2/plasma induced IFNα production by PBMCs (DELFIA); format: cell-based, human
# Procedure: (§1) VP4, H antigen or mock proteins were preincubated for 1 h at 37° C. at different concentrations with plasma from 5 healthy subjects diluted at optimal dilution (1/10 or 1/100 ). CVB3 or CVB4 were then added for 1 hour before incubating with PBMCs. […] On the contrary, the mock proteins isolated from non-infected Hep-2 cells have non effect on the IFNα production.
# PBMCs separated from whole heparinated blood are distributed into microwells (plate of 96 wells), at the rate of 5 to 8.10^5 cell in 100 μl of supplemented RPMI medium by well. The infection of PBMC is made with a final volume of 100 μl of preparation in each well. After incubation for 48 h at 37° C. under a 5% CO2 atmosphere and 90% humidity, the supernatant is harvested and used immediately for IFNα dosage, or clarified by centrifugation for 10 minutes at 180×g and stored at −80° C. until dosage of the produced IFNα.
# (§2) The concentration of the produced IFNα is determined with a sensitive and specific technique, the DELFIA method (Dissociation Enhanced Lanthanide FluoroImmmoAssay) (Rönnblom and al 1997).
# (§3) The dosage of IFNα is performed following the DELFIA principle (Dissociation Enhanced Lanthanide FluoroImmunoAssay), based on a immunofluorescence in retarded phase method using antibodies binding IFNα of which one is labelled with europium. The use of an activation solution will release the europium conjugated with antibodies and emit a fluorescence proportional to the amount of produced IFNα and measured with a fluorometer (fluorometer LKB Wallac 1230 ARCOSO®, Turku, Finlande).
# Monoclonal anti-IFNα antibodies LT 273 (5.4 mg/ml) and LT 293 (4.8 mg/ml) supplied by Dr Gunar Alm (Uppsala, Sweden) are coated to the bottom of the wells after an incubation for 12 hours at room temperature. These plates can be stored in a buffer at 4° C. or are used immediately. Standard samples of human IFNα are prepared with an “irrelevant” monoclonal mouse antibody IgG1 in order to establish the reference curve (10 measurements). The other samples to be analysed are added to each well (100 μl) with the dilution buffer and the “irrelevant” antibodies and incubated for 2 hours with gentle stirring at room temperature. The wells are washed 3 times with the washing solution. The antibody conjugated to europium (200 μl) is added to each well, left to incubate for 1 hour at room temperature with gentle stirring. The plate is washed 6 times with a washing solution. The activation solution (200 μl), added immediately after washing and left for 20 to 30 minutes for incubation in the well, causes a cleavage of the europium bound to the antibody fixed to IFNα, emitting a fluorescence measured with the fluorescence reader (LKB Wallac 1230 ARCUS®). The IFNα concentration will be calculated from the values of the measured fluorescence by means of the Graphpad program (San Diego, USA). The detection threshold of IFNα is of 0.5 IU/ml.
# The plasma from a healthy donor (optimal dilution 1/10th or 1/100th) is pre-incubated for 1 hour at 37° C. with the recombinant VP4 protein of CVB4E2 (optimal concentration at 1 μg/ml). The whole is incubated again for one hour at 37° C. in the presence of the CVB4E2 virus (dilutions at 1/10th or 1/100th; viral titer at 10^13 TCID50/ml) then applied to the PBMCs, (5.10^5/well) to incubate for 48 hours.
# In the same way, the plasma preparation preincubated for 1 hour and VP4 of CVB3 are incubated for 1 hour with CVB4E2 before infecting the PBMCs for 48 hours and determinating the amount of the produced IFNα.
# The virus (CVB4E2 or CVB3) infected PBMCs in the presence of plasma are deemed to be positive controls of this experimentation. The negative controls are obtained with one well of PBMC alone, one well of virus CVB4B2 alone and one well of CVB3 alone.
# The CVB4E2 induced IFNα production in cultures of PBMCs previously incubated in the presence of plasma from healthy subjects was measured. […]
# [3] = system: CVB3/plasma induced IFNα production by PBMCs; assay: CVB3/plasma induced IFNα production by PBMCs (DELFIA); format: cell-based, human; conditions: protein preincubated 1 h at 37°C at different concentrations with plasma from healthy subjects, then CVB3, then PBMCs
# Procedure: as §1
# PBMCs separated from whole heparinated blood are distributed into microwells (plate of 96 wells), at the rate of 5 to 8.10^5 cell in 100 μl of supplemented RPMI medium by well. The infection of PBMC is made with a final volume of 100 μl of preparation in each well. […]
# as §2
# as §3, with “Finlande). […]” for “Finlande).”
# [4] = Patient = 40 serums of diabetic patients
# [5] = Control = 40 serums of non diabetic patients
Compound,OD in ELISA assay compared with the VP4 protein [1],"Mean value of OD ratio (OD / OD of negative control), ELISA [1, 4]","Mean value of OD ratio (OD / OD of negative control), ELISA [1, 5]",also measured
CSCC[C@H](N)C(=O)NCC(=O)N[C@@H](C)C(=O)N[C@@H](CCC(N)=O)C(=O)N[C@H](C(=O)N[C@@H](CO)C(=O)N[C@H](C(=O)N[C@@H](CCC(N)=O)C(=O)N[C@@H](CCCCN)C(=O)N[C@H](C(=O)NCC(=O)N[C@@H](C)C(=O)N[C@@H](Cc1c[nH]cn1)C(=O)N[C@@H](CCC(=O)O)C(=O)N[C@H](C(=O)N[C@@H](CO)C(=O)N[C@@H](CC(C)C)C(=O)N[C@@H](CO)C(=O)N[C@@H](C)C(=O)N[C@@H](CO)C(N)=O)[C@@H](C)O)[C@@H](C)O)[C@@H](C)O)C(C)C [VP4-P1],comparable to the VP4 protein,1.450,–,–
CC[C@H](C)[C@H](NC(=O)[C@H](CC(N)=O)NC(=O)[C@@H](NC(=O)[C@H](Cc1ccc(O)cc1)NC(=O)[C@H](Cc1c[nH]cn1)NC(=O)[C@@H](NC(=O)[C@@H](NC(=O)[C@H](CO)NC(=O)[C@H](CC(N)=O)NC(=O)CNC(=O)[C@H](CO)NC(=O)[C@H](C)NC(=O)[C@H](CO)NC(=O)[C@H](CC(C)C)NC(=O)[C@H](CO)NC(=O)[C@@H](NC(=O)[C@H](CCC(=O)O)NC(=O)[C@H](Cc1c[nH]cn1)NC(=O)[C@H](C)NC(=O)CN)[C@@H](C)O)[C@@H](C)CC)[C@@H](C)CC)[C@@H](C)O)C(N)=O [VP4-P2],comparable to the VP4 protein; also recorded: same behaviour as VP4; also recorded: recognizes a higher level of antibodies with diabetics as with non-diabetics,2.373,0.691,"Mean value of OD ratio (OD / OD of negative control), ELISA ([1]; Patient = 40 serums of diabetic patients, listed as Peptide P2): 2.376; effect on IFNα production during infection of PBMCs with CVB4E2 in the presence of plasma ([2]; plasma 1/100th, peptide at three concentrations (FIG. 11, tracks 7 to 9)): diminution of the dose-dependent IFNα production"
CC[C@H](C)[C@H](NC(=O)[C@H](CC(N)=O)NC(=O)[C@@H](NC(=O)[C@H](Cc1ccc(O)cc1)NC(=O)[C@H](Cc1c[nH]cn1)NC(=O)[C@@H](NC(=O)[C@@H](NC(=O)[C@H](CO)NC(=O)[C@H](CC(N)=O)NC(=O)CN)[C@@H](C)CC)[C@@H](C)CC)[C@@H](C)O)C(=O)N[C@@H](CC(N)=O)C(=O)N[C@@H](Cc1ccc(O)cc1)C(=O)N[C@@H](Cc1ccc(O)cc1)C(=O)N[C@@H](CCCCN)C(=O)N[C@@H](CC(=O)O)C(=O)N[C@@H](C)C(=O)N[C@@H](C)C(=O)N[C@@H](CO)C(=O)N[C@@H](CC(N)=O)C(=O)N[C@@H](CO)C(N)=O [VP4-P3],–,0.712,–,–
CC(C)[C@H](NC(=O)[C@H](CC(=O)O)NC(=O)[C@H](CCCCN)NC(=O)[C@@H](NC(=O)[C@@H]1CCCN1C(=O)[C@H](CCC(=O)O)NC(=O)[C@@H](NC(=O)[C@H](Cc1ccccc1)NC(=O)[C@H](CCCCN)NC(=O)[C@H](CO)NC(=O)[C@@H]1CCCN1C(=O)[C@H](CC(=O)O)NC(=O)[C@H](CCC(N)=O)NC(=O)[C@@H](NC(=O)[C@H](Cc1ccccc1)NC(=O)[C@H](CC(=O)O)NC(=O)[C@H](CCC(N)=O)NC(=O)[C@H](CCCNC(=N)N)NC(=O)[C@H](CC(N)=O)NC(=O)[C@H](C)NC(=O)[C@H](CO)NC(=O)[C@H](CC(N)=O)NC(=O)[C@H](CO)NC(=O)[C@H](C)NC(=O)[C@H](C)NC(=O)[C@H](CC(=O)O)NC(=O)[C@H](CCCCN)NC(=O)[C@H](Cc1ccc(O)cc1)NC(=O)[C@H](Cc1ccc(O)cc1)NC(=O)[C@@H](N)CC(N)=O)[C@@H](C)O)[C@@H](C)O)C(C)C)C(N)=O [VP4-P5],–,0.968,–,–
"H-SKFTEPVKDVMIKSLPALN-NH2 [VP4-P6, NH2-SKFTEPVKDVMIKSLPALN-CONH2]",–,0.600,–,–
VP4CVB4: natural structural internal protein VP4 dissociated and purified from coxsackievirus CVB4 E2,–,1.964,0.711,"effect on CVB4/plasma induced IFNα production ([2]; protein preincubated 1 h at 37°C at different concentrations with plasma from healthy subjects, then CVB4, then PBMCs): Decrease; effect on CVB3/plasma induced IFNα production [3]: no change"
